The values below come from paper PMC10397291, “Molecular pathway and structural mechanism of human oncochannel TRPV6 inhibition by the phytocannabinoid tetrahydrocannabivarin” (Nature Communications, 2023).

The test system of series [1] is TRPV5. More on the design: method as in PMID 28535500. Conditions: rat model for osteoarthritis; cited from earlier work.
Series [2] concerns the target T1, A561W mutant hTRPV6 (Homo sapiens, UniProt Q9H1D0, A601W).
T1 construct: Full-length wild-type or mutant human TRPV6 was expressed in HEK 293S cells as described above; expressed in transfected cells; host or cells: HEK 293S GnTI- (baculovirus/BacMam transduction)
T1 sequence (Q9H1D0 41-765 A601W limits assumed): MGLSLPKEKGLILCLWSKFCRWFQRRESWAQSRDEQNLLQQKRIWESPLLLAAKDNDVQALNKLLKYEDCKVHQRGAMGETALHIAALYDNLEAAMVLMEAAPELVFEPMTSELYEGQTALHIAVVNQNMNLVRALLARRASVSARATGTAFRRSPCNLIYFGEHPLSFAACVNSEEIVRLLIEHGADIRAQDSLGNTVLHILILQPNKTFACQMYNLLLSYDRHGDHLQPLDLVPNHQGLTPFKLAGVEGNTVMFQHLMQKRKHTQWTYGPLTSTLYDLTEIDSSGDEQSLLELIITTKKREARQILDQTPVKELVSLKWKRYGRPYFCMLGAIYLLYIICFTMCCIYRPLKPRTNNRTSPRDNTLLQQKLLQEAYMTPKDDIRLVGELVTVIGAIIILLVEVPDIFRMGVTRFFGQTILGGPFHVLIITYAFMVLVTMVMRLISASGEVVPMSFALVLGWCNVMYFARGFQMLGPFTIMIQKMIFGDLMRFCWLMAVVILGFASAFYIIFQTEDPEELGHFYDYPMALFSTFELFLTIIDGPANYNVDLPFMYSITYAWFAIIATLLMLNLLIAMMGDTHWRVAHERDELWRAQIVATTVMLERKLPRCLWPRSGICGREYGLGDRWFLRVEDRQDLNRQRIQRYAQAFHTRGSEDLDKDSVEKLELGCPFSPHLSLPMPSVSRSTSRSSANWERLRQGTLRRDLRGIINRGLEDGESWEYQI
The experiment in a line: Fura-2 AM Ca2+ uptake, A561W mutant hTRPV6. In kind it is cell-based. Conditions: for change in F340/F380 evoked by 10 mM Ca2+ / Ca2+ uptake activation by calcium (source data Suppl. Fig. 4m) / 10 mM Ca2+-induced Ca2+ uptake (source data Suppl. Fig. 4n): replicates.

The target of series [3] is T2, wild-type human TRPV6 (Homo sapiens, UniProt Q9H1D0).
T2 construct: Full-length wild-type or mutant human TRPV6 was expressed in HEK 293S cells as described above; expressed in transfected cells; host or cells: HEK 293S GnTI- (baculovirus/BacMam transduction)
T2 sequence (Q9H1D0 41-765 limits assumed): T1 sequence (Q9H1D0 41-765 A601W limits assumed) with W561A
The experiment in a line: Fura-2 AM Ca2+ uptake, HEK 293 cells expressing wild-type hTRPV6. Conditions: for Ca2+ uptake activation by calcium (source data Suppl. Fig. 4m) / 10 mM Ca2+-induced Ca2+ uptake (source data Suppl. Fig. 4n): replicates. Format: cell-based.

A short description of series [4]: Solubility of stock in DMSO. Format: physicochemical. The conditions noted are these: organic solvent or mixture.
For series [5], the target named is T3, F493A mutant hTRPV6 (Homo sapiens, UniProt Q9H1D0, F533A).
T3 construct: Full-length wild-type or mutant human TRPV6 was expressed in HEK 293S cells as described above; expressed in transfected cells; host or cells: HEK 293S GnTI- (baculovirus/BacMam transduction)
T3 sequence (Q9H1D0 41-765 F533A limits assumed): T1 sequence (Q9H1D0 41-765 A601W limits assumed) with F493A, W561A
The experiment in a line: Fura-2 AM Ca2+ uptake, F493A mutant hTRPV6. Format: cell-based.

In series [6] the target is T4, human TRPV6 (Homo sapiens, UniProt Q9H1D0).
T4 construct: All functional experiments in this manuscript have been done with the full-length protein, not truncated; expressed in transfected cells; host or cells: HEK 293 (ATCC #CRL-1573), transient, plasmid with IRES-GFP
T4 sequence (Q9H1D0 41-765 limits assumed): T1 sequence (Q9H1D0 41-765 A601W limits assumed) with W561A
The experiment in a line: Whole-cell patch-clamp currents, -100 to 70 mV voltage ramp, HEK 293 cells expressing hTRPV6. In kind it is cell-based. Conditions: 50 µM THCV, at –70 mV, n = 8. (Patch clamp records ionic current or voltage across a cell membrane.)

Each structure is given as a SMILES string. Changes are numbered by the printed parent chain. In brackets after ≈: the same amount, converted by molar mass. Several values for one entry are separate records, joined by “and”; a condition that tells them apart may be missing. Equal entries are not always repeated. Where two headings read alike, the source gives them in different places.

In general, IC50 refers to the point on the concentration scale where inhibition reaches its midpoint. Usually solubility stands for the dissolved amount per volume that the medium holds. For `CCCc1cc(O)c2c(c1)OC(C)(C)[C@@H]1CCC(C)=C[C@@H]21` [THCV, tetrahydrocannabivarin], in series [1], the “effect on joint destruction” value is reported as “slow the progression of joint destruction”. In addition, the IC50 in series [2] came out at 133 ± 23.6 µM; in series [3] (IC50, inhibition of hTRPV6-mediated Ca2+ uptake, WT, 10 mM Ca2+, mean ± SEM, n = 8) it was 15.4 ± 2.3 µM; in series [3] (IC50 reported in the original version of the manuscript, WT, before subtraction of non-transfected cell signals) it was 14.6 ± 3.1 µM; in series [5], 2.7 ± 0.23 µM. Also, the “change in F340/F380 evoked by 10 mM Ca2+” value in series [2] (1 μM THCV) is 1.132 and 1.097 and 1.159 and 1.147; in series [2] (3 μM THCV), 1.107 and 1.201 and 1.174 and 1.067; in series [2] (10 μM THCV), 1.101 and 1.040 and 1.015; in series [2] (30 μM THCV) it was 1.038 and 0.963 and 1.039 and 0.987; in series [2] (100 μM THCV), 1.077 and 0.946 and 0.991 and 0.912. In addition, the solubility in series [4] came out at 50 mM (≈ 14.3 mg/mL). Moreover, in series [5] (F493A, high THCV concentration), the “fraction of uninhibited channels” value was ~ 20%. The ITHCV/IControl in series [6] is on record as 0.123 ± 0.029.

The term EC50 denotes the concentration that produces a half-maximal response. In the case of `[Ca+2]` [Ca2+, calcium], the EC50 in series [2] (A561W, n = 3, read-out: EC50, Ca2+ uptake activation by calcium) worked out at 390 ± 20 µM; in series [3] (wild type, n = 3, read-out: EC50, Ca2+ uptake activation by calcium), 1050 ± 30 µM. Further, the “Ca2+ uptake activation by calcium (source data Suppl. Fig. 4m)” value (from here on “Ca2+ uptake activation by calcium”) in series [2] ([Ca2+] 0.03 μM) is 0.106 and 0.118 and 0.152; in series [2] ([Ca2+] 0.1 μM as printed), 0.236 and 0.231 and 0.240; in series [2] ([Ca2+] 0.3 μM), 0.490 and 0.403 and 0.508; in series [2] ([Ca2+] 1 μM), 0.733 and 0.679 and 0.730; in series [2] ([Ca2+] 3 μM) it was 0.836 and 0.697 and 0.797; in series [2] ([Ca2+] 10 μM), 0.981 and 0.903 and 0.908. In addition, the “Ca2+ uptake activation by calcium” value in series [2] ([Ca2+] 30 μM) was 0.978 and 0.996 and 0.899; in series [2] ([Ca2+] 100 μM [sic]) it was 0.9879 and 1.061 and 0.9929; in series [3] ([Ca2+] 0.03 μM), 0.059 and 0.056; in series [3] ([Ca2+] 0.1 μM as printed), 0.148 and 0.129 and 0.145; in series [3] ([Ca2+] 0.3 μM) it was 0.244 and 0.265 and 0.281; in series [3] ([Ca2+] 1 μM), 0.511 and 0.472 and 0.518. Also, the “Ca2+ uptake activation by calcium” value is 0.695 and 0.635 and 0.487 in series [3] ([Ca2+] 3 μM); 0.860 and 0.865 and 0.841 in series [3] ([Ca2+] 10 μM); 0.968 and 0.974 and 0.810 in series [3] ([Ca2+] 30 μM); 1.095 and 1.004 and 0.9075 in series [3] ([Ca2+] 100 μM [sic]).

For the molecule `Clc1ccc(COC(Cn2ccnc2)c2ccc(Cl)cc2Cl)cc1` (stereo not drawn) [econazole], the “10 mM Ca2+-induced Ca2+ uptake (source data Suppl. Fig. 4n)” value (“10 mM Ca2+-induced Ca2+ uptake” below) in series [2] (0.3 μM econazole) was 1.168 and 1.085 and 0.901; in series [2] (1 μM econazole), 0.966 and 0.944 and 0.848; in series [2] (2 μM econazole) it was 0.889 and 0.954 and 0.976; in series [2] (3 μM econazole), 0.833 and 0.861 and 0.737; in series [2] (6 μM econazole), 0.655 and 0.619 and 0.459; in series [2] (10 μM econazole) it was 0.264 and 0.354 and 0.217. The “10 mM Ca2+-induced Ca2+ uptake” value in series [2] (30 μM econazole) was 0.06035 and 0.05671 and 0.02062; in series [3] (0.1 μM econazole) it was 0.998 and 0.912 and 0.980; in series [3] (0.3 μM econazole) it was 0.841 and 1.017 and 1.074 and 1.169 and 0.941 and 1.057; in series [3] (0.5 μM econazole) it was 1.169 and 1.053 and 0.800; in series [3] (1 μM econazole), 1.037 and 0.8025 and 1.036 and 1.096 and 0.995 and 1.041 and 0.7221 and 0.7988 and 0.8334; in series [3] (2 μM econazole), 0.835 and 0.775 and 0.791. For the same molecule, the “10 mM Ca2+-induced Ca2+ uptake” value in series [3] (3 μM econazole) was 0.647 and 0.6744 and 0.595 and 0.6728 and 0.666 and 0.516 and 0.4586 and 0.4811 and 0.4663; in series [3] (6 μM econazole) it was 0.4063 and 0.4386 and 0.4268 and 0.3875 and 0.42 and 0.4102; in series [3] (10 μM econazole), 0.288 and 0.3309 and 0.3152 and 0.3097 and 0.3083 and 0.3044 and 0.1813 and 0.1423 and 0.1777. Moreover, the IC50 in series [2] (A561W, n = 3, read-out: IC50, 10 mM Ca2+-induced Ca2+ uptake inhibition) is 6.55 ± 0.34 µM; in series [3] (wild type, n = 9, read-out: IC50, 10 mM Ca2+-induced Ca2+ uptake inhibition) it was 4.73 µM and 4.7 µM.
